For 13 molecules, IC50 and Ratio IC50 results are on record in ChEMBL document CHEMBL1143392, “Synthesis and cyclooxygenase inhibition of various (aryl-1,2,3-triazole-1-yl)-methanesulfonylphenyl derivatives” (Bioorg Med Chem, 2009).

The target in assay [1] is Prostaglandin G/H synthase 1 (Homo sapiens, UniProt P23219). Put plainly: Inhibition of COX1 by enzyme immunoassay.
Assay [2] has as its target T1, Prostaglandin G/H synthase 2 (Homo sapiens, UniProt P35354).
T1 sequence (P35354 whole entry): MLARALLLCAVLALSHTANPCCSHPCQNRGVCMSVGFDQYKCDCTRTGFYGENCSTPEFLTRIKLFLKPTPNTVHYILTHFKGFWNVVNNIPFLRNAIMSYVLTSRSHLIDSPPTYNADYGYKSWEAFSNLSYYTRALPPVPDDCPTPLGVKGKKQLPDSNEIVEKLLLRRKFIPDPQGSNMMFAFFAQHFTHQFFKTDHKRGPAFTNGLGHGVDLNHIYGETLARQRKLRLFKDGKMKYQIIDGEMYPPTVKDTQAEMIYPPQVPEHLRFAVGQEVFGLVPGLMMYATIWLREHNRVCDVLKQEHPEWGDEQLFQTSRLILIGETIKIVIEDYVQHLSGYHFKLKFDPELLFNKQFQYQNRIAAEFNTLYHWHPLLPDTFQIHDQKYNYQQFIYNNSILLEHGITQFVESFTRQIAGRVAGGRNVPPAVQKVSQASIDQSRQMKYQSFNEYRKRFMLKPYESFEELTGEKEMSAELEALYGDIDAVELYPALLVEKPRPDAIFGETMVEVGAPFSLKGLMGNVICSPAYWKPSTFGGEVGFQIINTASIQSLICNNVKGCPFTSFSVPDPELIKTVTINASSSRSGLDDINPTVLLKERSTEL
Put plainly: Inhibition of COX2 by enzyme immunoassay.

The nature of assay [3]: Selectivity index, ratio of IC50 for COX1 to IC50 COX2.

Chain of Prostaglandin G/H synthase 1 (P23219 whole entry): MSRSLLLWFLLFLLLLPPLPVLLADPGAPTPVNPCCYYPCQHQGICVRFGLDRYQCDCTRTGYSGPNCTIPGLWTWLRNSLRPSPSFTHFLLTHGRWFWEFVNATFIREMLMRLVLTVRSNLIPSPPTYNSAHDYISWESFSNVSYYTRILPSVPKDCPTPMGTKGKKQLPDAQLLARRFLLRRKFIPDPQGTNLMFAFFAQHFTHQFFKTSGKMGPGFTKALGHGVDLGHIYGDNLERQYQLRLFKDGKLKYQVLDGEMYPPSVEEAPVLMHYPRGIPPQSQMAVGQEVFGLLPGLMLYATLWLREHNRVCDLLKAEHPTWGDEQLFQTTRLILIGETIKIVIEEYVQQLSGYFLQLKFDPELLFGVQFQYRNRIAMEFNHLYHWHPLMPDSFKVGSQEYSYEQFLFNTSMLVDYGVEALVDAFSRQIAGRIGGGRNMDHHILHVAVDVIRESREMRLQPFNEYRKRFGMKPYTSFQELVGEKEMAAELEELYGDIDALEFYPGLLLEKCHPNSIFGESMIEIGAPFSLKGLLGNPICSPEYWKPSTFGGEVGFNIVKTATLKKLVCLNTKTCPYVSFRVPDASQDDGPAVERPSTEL

For the molecule `Cc1ccc(-c2cnnn2-c2ccc(S(C)(=O)=O)cc2)cc1`, the IC50 in assay [1] turned out to be 0.78 µM; in assay [2], 0.12 µM. Also, the Ratio IC50 in assay [3] turned out to be 6.5.

As to `CN(C)c1ccc(-c2cnnn2-c2ccc(S(C)(=O)=O)cc2)cc1`, the IC50 in assay [1] amounted to 0.84 µM; in assay [2], 0.36 µM. Also, the Ratio IC50 in assay [3] was 2.3.

For `CS(=O)(=O)c1ccc(-n2cc(-c3ccc(Cl)cc3)nn2)cc1`, the IC50 is 12.2 µM in assay [1] and 0.19 µM in assay [2]. Moreover, the Ratio IC50 in assay [3] stood at 64.

`Cc1ccc(-c2cn(-c3ccc(S(C)(=O)=O)cc3)nn2)cc1`: the IC50 in assay [1] came to 45 µM; in assay [2], 2.5 µM. Besides, in assay [3], the Ratio IC50 is 18.

Regarding `CS(=O)(=O)c1ccc(-n2nncc2-c2ccccc2)cc1`, the half-maximal inhibitory concentration (IC50) was found to be 0.81 µM in assay [1] and 0.11 µM in assay [2]. Besides, the Ratio IC50 in assay [3] was found to be 7.5.

Turning to `COc1ccc(-c2cn(-c3ccc(S(C)(=O)=O)cc3)nn2)cc1`, the figures for the IC50 in assay [1] and in assay [2] were 10 µM and 2.5 µM, respectively. The Ratio IC50 in assay [3] was 4.

Take `CS(=O)(=O)c1ccc(-n2nncc2-c2ccc(F)cc2)cc1`: the IC50 in assay [1] was 0.91 µM; in assay [2] it was 0.03 µM. The Ratio IC50 in assay [3] was determined as 30.3.

In assay [1], `COc1ccc(C2=C(c3ccc(S(C)(=O)=O)cc3)CCC2)cc1` yielded an IC50 of 5 µM.

With `CS(=O)(=O)c1ccc(-n2nncc2-c2ccc(Cl)cc2)cc1`, the results for the IC50 in assay [1] and in assay [2] were 0.7 µM and 0.04 µM, respectively. The Ratio IC50 in assay [3] is 17.5.

In the case of `CS(=O)(=O)c1ccc(-n2cc(-c3ccccc3)nn2)cc1`, the figures for the IC50 in assay [1] and in assay [2] were 20.8 µM and 0.15 µM, respectively. Moreover, in assay [3], the Ratio IC50 is 139.

As for `CS(=O)(=O)c1ccc(-n2cc(-c3ccc(F)cc3)nn2)cc1`, the IC50 in assay [1] worked out at 12.5 µM; in assay [2] it was 0.21 µM. In addition, the Ratio IC50 in assay [3] was 59.

Take `CN(C)c1ccc(-c2cn(-c3ccc(S(C)(=O)=O)cc3)nn2)cc1`: the IC50 was over 100 µM in assay [1] and over 10 µM in assay [2].

In the case of `COc1ccc(-c2cnnn2-c2ccc(S(C)(=O)=O)cc2)cc1`, the IC50 in assay [1] was determined as 0.83 µM; in assay [2], 0.17 µM. In addition, in assay [3], the Ratio IC50 is 4.9.

By IC50 is commonly meant the midpoint of a concentration-inhibition curve.
